Patent US12227520B2 (priority 2019, dated 2025)
Where two headings read alike, the source gives them in different places.

Legend:
[1] = Cytotoxicity assay in MT-4 cells; type: cell-based, human; details: human, uninfected MT-4 cells, 5 days incubation; read-out: CC50
How it was run: (§1)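 For cytotoxicity, uninfected MT-4 cells were incubated with compounds 5 days at 37 °C, with 10 μM puromycin marking base cytotoxicity. Parallel plates used HIV-1 IIIB-infected (1:250 stock dilution) or mock cells with 5 μM AZT and no-drug controls. Read-out: CellTiter-Glo chemiluminescence.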

uninfected MT-4 cells = assay: Cytotoxicity assay in MT-4 cells; type: cell-based, human; details: uninfected MT-4 cells, 5 days incubation
How it was run: as §1

pLai RLuc reporter virus = assay: microbe, parasite or virus in culture; type: cell-based, HIV
How it was run: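 Read-out is Renilla luciferase after 72 h at 37 °C in MT-4 cells infected 2 h beforehand with pLai RLuc reporter virus; compounds diluted 1:3.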

HIV-1 (IIIB) = assay: Antiviral assay in MT-4 cells (HIV MT-4 antiviral assay); type: cell-based; details: HIV-1 (IIIB) in MT-4 cells, 5 days incubation; read-out: EC50
How it was run: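 Read-out is CellTiter-Glo chemiluminescence after 5-day culture at 37° C, giving protection of MT-4 cells from HIV-1 IIIB cytopathicity. Compounds tested in 1:3 dilution series in complete RPMI; controls were no drug, mock infection and 5 μM AZT.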

[2] = Human immunodeficiency virus 1, 72 h, read-out: Antiviral Serum Shift RLuc CCM, CCM (RPMI media, 10% FBS, 1% P/S), 72-h incubation

Work on `O=C(NCc1ccc(F)cc1F)c1cn2c(c(O)c1=O)C(=O)N1CCc3ccccc3[C@@H]2C1` [Example 64-1, (13R)—N-(2,4-difluorobenzyl)-4-hydroxy-3,5-dioxo-3,5,8,13-tetrahydro-7H-6,13-methanobenzo[g]pyrido[1,2-a][1,4]diazonine-2-carboxamide] yielded a CC50 at 5 days [1] of 14800 nM, a CC50 (uninfected MT-4 cells) of 12300 nM and an EC50 (pLai RLuc reporter virus; Human immunodeficiency virus 1, 72 h, read-out: Antiviral Serum Shift RLuc 50% HS, HS/CCM (RPMI media, 10% FBS, 50% HS, 1% P/S), 72-h incubation) of 3.31 nM. The EC50 (pLai RLuc reporter virus; [2]) was 0.319 nM.
Compound “(3S,7S)-5-fluoro-12-hydroxy-3-methyl-1,11-dioxo-N-(2,4,6-trifluorobenzyl)-1,4,7,11-tetrahydro-3H-2,7-methanopyrido[1,2-a][1,4]diazonine-10-carboxamide [Example 118-1]” has an EC50 (HIV-1 (IIIB)) of 0.79 nM, a CC50 (uninfected MT-4 cells) of 11500 nM and an EC50 (pLai RLuc reporter virus; CCM (RPMI media, 10% FBS, 1% P/S), 72-h incubation, read-out: Antiviral Serum Shift RLuc CCM) of 0.296 nM. It also gave an EC50 (pLai RLuc reporter virus; HS/CCM (RPMI media, 10% FBS, 50% HS, 1% P/S), 72-h incubation, read-out: Antiviral Serum Shift RLuc 50% HS) of 0.881 nM.
For `O=C(NCc1ccc(F)cc1F)c1cn2c(c(O)c1=O)C(=O)N1C[C@H](F)CC[C@H]2C1` (single isomer, unassigned) [Example 53-1], the EC50 (HIV-1 (IIIB)) was 2.13 nM, the CC50 (uninfected MT-4 cells) was 13200 nM and the EC50 (pLai RLuc reporter virus; [2]) was 0.541 nM. It also gave an EC50 (pLai RLuc reporter virus; read-out: Antiviral Serum Shift RLuc 50% HS, HS/CCM (RPMI media, 10% FBS, 50% HS, 1% P/S), 72-h incubation) of 6.13 nM.
